Read-outs that look alike come from different tables or passages of the source.
System: Bmi-1 protein
Test: Sandwich ELISA Assay (Bmi-1 protein level in HT-1080 cells after compound treatment)
Type: cell-based
Experimental: Cell Seeding and Compound Treatment (Day 1):
HT-1080 cells were seeded at 8000 cells/well (50 μL) in 96-well tissue culture plates. After the cells became adherent (3-4 hours), 2× diluted stocks of test compounds in 50 μL DMEM containing 1% DMSO (final DMSO concentration was 0.5%) were added and the plates were incubated at 37° C. under 5% CO2 for 40-48 hours.
ELISA Plate First Antibody Preparation (Day 2):
The First Antibody (Millipore Mouse, monoclonal to mouse Bmi-1, clone F6, catalog #05-637) diluted to […] in PBS was added (100 μL) to each well of a Nunc MaxiSorp 96-well ELISA plate. The plate was covered with a plate seal and allowed to stand overnight.
Cell Lysate Preparation (Day 3):
Fresh Lysis buffer (1×) was prepared on the day of the assay as follows: 1 mM EDTA, 150 mM NaCl, 0.5% Triton-X 100, 10 mM NaF, 20 mM B-Glycerophosphate, 1 mM DTT (in PBS, pH 7.2-7.4) and HALT protease inhibitor cocktail (lx) (Pierce #78410).
A standard curve was prepared at the following Bmi-1 concentrations: 8000, 4000, 2000, 1000, 500, 250, 125 and 0 pg/mL. The Bmi-1 Recombinant Protein Standard (Novus Biologicals PCGF4 Recombinant Protein (P01), catalog # H00000648-P01) used to prepare the standard curve was stored at −80° C. On first thaw, the Recombinant Protein Standard was diluted to 10 μg/L in Blocking Buffer (1% BSA in PBS; BSA: Fisher Scientific Catalog #1600-100). Aliquots were taken and refrozen at −80° C. The aliquots may be kept at 4° C. and reused after first thaw, but only within 1-2 weeks. The Recombinant Protein Standard contains a GST-fusion tag that appears at approximately 70 Kda on Western Blot.
The prepared ELISA plate was washed 3× with Wash Buffer (0.05% Tween-20 in PBS). The final wash was removed from the plate and the plate was blotted dry. Blocking Buffer (300 μL) (1% BSA in PBS) was added to each well. The plate was covered with a plate seal and incubated at room temperature for 1 hour. The blocked plate was washed 3× with Wash Buffer, then the final wash was removed and the plate was blotted dry. The previously prepared samples and standards were added ([…]) and the plate was covered with a plate seal and incubated at 4° C. overnight.
The prepared ELISA plate was removed from incubation and allowed to stand at room temperature for 30 minutes, then washed and blotted dry. The Second Antibody (Cell Signaling Rabbit anti-Bmi-1, Cat #2830) diluted to 1:600 in Blocking Buffer was added (100 μL) to each well, except as needed for background control wells. The plate was covered with a plate seal and incubated for 1.5 hrs at room temperature.
The ELISA plate was washed and blotted dry as previously described. The Third Antibody (Cell Signaling HRP conjugated anti-rabbit IgG (CellSignaling, Cat #:7074) diluted to 1:300 in Blocking Buffer was added (100 μL) to each well, except as needed for background control wells. The plate was incubated for 1 hr at room temperature.
The plate was washed and blotted dry, then a previously prepared TMB substrate (TMB substrate kit, Pierce catalog #34021) (prepared by mixing kit reagents 1:1) (100 μL) was added per well. The plate was incubated for 20-30 minutes at room temperature in the dark, then Stop Solution (2 M sulfuric acid in water) (50 μL) was added per well. The plates were read at OD450 (experimental) and OD570 (reference).

[1] = Table 1, Bmi-1 sandwich ELISA, read-out: ELISA EC50 value for Bmi-1 protein
[2] = read-out: ELISA EC50 value for Bmi-1 protein, Table 1, Bmi-1 sandwich ELISA

| Compound | EC50 [1] [nM] | EC50 [2] [nM] |
| --- | --- | --- |
| N#Cc1cc(Nc2ccc(C(F)(F)F)cc2)nc(-c2c(CO)nc3ccccn23)c1 [compound 288, 2-[2-(hydroxymethyl)imidazo[1,2-a]pyridin-3-yl]-6-{[4-(trifluoromethyl)phenyl]amino}pyridine-4-carbonitrile] | 10 to 100 | – |
| COc1ccc(Nc2cc(C#N)cc(-c3c(C(F)(F)F)nc4ccccn34)n2)cc1 [Cpd 42, 2-[(4-methoxyphenyl)amino]-6-[2-(trifluoromethyl)imidazo[1,2-a]pyridin-3-yl]pyridine-4-carbonitrile] | – | 1 to 10 |
| COc1cccc(Nc2cncc(-n3c(C)nc4ccc(F)cc43)n2)c1 [compound 559, 6-(6-fluoro-2-methyl-1H-benzimidazol-1-yl)-N-(3-methoxyphenyl)pyrazin-2-amine] | 100 to 3000 | – |
| CC(=O)O[C@@H](C)c1nc2ccccc2n1-c1cncc(Nc2ccc(C(F)(F)F)cc2)n1 [compound 78, (1S)-1-[1-(6-{[4-(trifluoromethyl)phenyl]amino}pyrazin-2-yl)-1H-benzimidazol-2-yl]ethyl acetate] | 100 to 3000 | – |
| Cc1nn2ccc(F)cc2c1-c1cncc(Nc2ccc(C(F)(F)F)cc2)n1 [compound 537, 6-(5-fluoro-2-methylpyrazolo[1,5-a]pyridin-3-yl)-N-[4-(trifluoromethyl)phenyl]pyrazin-2-amine] | 10 to 100 | – |
| FC(F)(F)Oc1ccc(Nc2cncc(-c3c(C(F)(F)F)nc4sccn34)n2)cc1 [compound 120, N-[4-(trifluoromethoxy)phenyl]-6-[6-(trifluoromethyl)imidazo[2,1-b][1,3]thiazol-5-yl]pyrazin-2-amine] | 10 to 100 | – |
| Cc1nc2ncc(F)cn2c1-c1cc(C#N)cc(Nc2ccc(OC(F)(F)F)cc2)n1 [compound 438, 2-(6-fluoro-2-methylimidazo[1,2-a]pyrimidin-3-yl)-6-{[4-(trifluoromethoxy)phenyl]amino}pyridine-4-carbonitrile] | 10 to 100 | – |
| Ic1ccc(Nc2cncc(-n3cnc4ccccc43)n2)cc1 [compound 2, 6-(1H-benzimidazol-1-yl)-N-(4-iodophenyl)pyrazin-2-amine] | 10 to 100 | – |
| OCCNc1cc(Nc2ccc(C(F)(F)F)cc2)nc(-c2c(C(F)(F)F)nc3ccc(F)cn23)c1 [compound 291, 2-[(2-[6-fluoro-2-(trifluoromethyl)imidazo[1,2-a]pyridin-3-yl]-6-{[4-(trifluoromethyl)phenyl]amino}pyridin-4-yl)amino]ethanol] | 10 to 100 | – |
| Cc1c(-c2cncc(Nc3ccc(OC(F)F)cc3)n2)c(C(F)(F)F)nn1C [compound 280, N-[4-(difluoromethoxy)phenyl]-6-[1,5-dimethyl-3-(trifluoromethyl)-1H-pyrazol-4-yl]pyrazin-2-amine] | – | 10 to 100 |
| Cc1nn(C)c(C)c1-c1cccc(Nc2ccc(OC(F)(F)F)cc2)n1 [compound 144, N-[4-(trifluoromethoxy)phenyl]-6-(1,3,5-trimethyl-1H-pyrazol-4-yl)pyridin-2-amine] | 100 to 3000 | – |
| COc1ccc(Nc2ccc(C#N)c(-c3c(C(F)(F)F)nc4ccccn34)n2)cc1 [Cpd 34, 6-[(4-methoxyphenyl)amino]-2-[2-(trifluoromethyl)imidazo[1,2-a]pyridin-3-yl]pyridine-3-carbonitrile] | – | 100 to 3000 |
| CSc1nc2ccccc2n1-c1cncc(Nc2ccc(C(F)(F)F)cc2)n1 [compound 54, 6-[2-(methylsulfanyl)-1H-benzimidazol-1-yl]-N-[4-(trifluoromethyl)phenyl]pyrazin-2-amine] | 10 to 100 | – |
| Cc1nc2ccccc2n1-c1cc(F)cc(Nc2ccc(OC(F)F)cc2)n1 [compound 499, N-[4-(difluoromethoxy)phenyl]-4-fluoro-6-(2-methyl-1H-benzimidazol-1-yl)pyridin-2-amine] | 10 to 100 | – |
| Cc1nc2ccccc2n1-c1cncc(Nc2ccc(C(F)(F)F)cc2F)n1 [compound 644, N-[2-fluoro-4-(trifluoromethyl)phenyl]-6-(2-methyl-1H-benzimidazol-1-yl)pyrazin-2-amine] | 10 to 100 | – |
| Fc1ccc2nc(C(F)(F)F)c(-c3cncc(Nc4ccc(OC(F)F)cc4)n3)n2c1 [Cpd 56, N-[4-(difluoromethoxy)phenyl]-6-[6-fluoro-2-(trifluoromethyl)imidazo[1,2-a]pyridin-3-yl]pyrazin-2-amine] | 1 to 10 | – |
| CNc1nc2ccccc2n1-c1cncc(Nc2ccc(OC(F)F)cc2)n1 [compound 187, 1-(6-{[4-(difluoromethoxy)phenyl]amino}pyrazin-2-yl)-N-methyl-1H-benzimidazol-2-amine] | 1 to 10 | – |
| Cc1ccc(Nc2cccc(-n3c(C)nc4ccccc43)n2)cc1 [Cpd 581, 6-(2-methyl-1H-benzimidazol-1-yl)-N-(4-methylphenyl)pyridin-2-amine] | 1 to 10 | – |
| FC(F)Oc1ccc(Nc2cncc(-c3c(C4CC4)nc4ccc(C(F)(F)F)cn34)n2)cc1 [compound 251, 6-[2-cyclopropyl-6-(trifluoromethyl)imidazo[1,2-a]pyridin-3-yl]-N-[4-(difluoromethoxy)phenyl]pyrazin-2-amine] | 10 to 100 | – |
| Cc1nc2cc(Cl)ccc2n1-c1cncc(Nc2ccc(OC(F)F)cc2)n1 [compound 224, 6-(5-chloro-2-methyl-1H-benzimidazol-1-yl)-N-[4-(difluoromethoxy)phenyl]pyrazin-2-amine] | 10 to 100 | – |
| FC(F)Oc1ccc(Nc2cncc(-c3c(C(F)(F)F)nc4ncccn34)n2)cc1 [Cpd 109, N-[4-(difluoromethoxy)phenyl]-6-[2-(trifluoromethyl)imidazo[1,2-a]pyrimidin-3-yl]pyrazin-2-amine] | 10 to 100 | – |
| COc1ccc(Nc2cncc(-n3cnc4ccccc43)n2)cc1 [compound 1, 6-(1H-benzimidazol-1-yl)-N-(4-methoxyphenyl)pyrazin-2-amine] | 10 to 100 | – |
| COc1ccc(Nc2cccc(-c3c(C(F)(F)F)nc4ccccn34)n2)cc1F [Cpd 8, N-(3-fluoro-4-methoxyphenyl)-6-[2-(trifluoromethyl)imidazo[1,2-a]pyridin-3-yl]pyridin-2-amine] | 1 to 10 | – |
| COC1CCc2nc(C)c(-c3cncc(Nc4ccc(C(F)(F)F)cc4)n3)n2C1 (stereo not drawn) [compound 409, 6-(6-methoxy-2-methyl-5,6,7,8-tetrahydroimidazo[1,2-a]pyridin-3-yl)-N-[4-(trifluoromethyl)phenyl]pyrazin-2-amine] | 1 to 10 | – |
| Cc1nc2cc(F)ccc2n1-c1cncc(Nc2ccc(C(F)(F)F)nc2)n1 [compound 431, 6-(5-fluoro-2-methyl-1H-benzimidazol-1-yl)-N-[6-(trifluoromethyl)pyridin-3-yl]pyrazin-2-amine] | 10 to 100 | – |
| Cc1nc2cc(F)c(F)cc2n1-c1cncc(Nc2ccc(C(F)(F)F)nc2)n1 [compound 304, 6-(5,6-difluoro-2-methyl-1H-benzimidazol-1-yl)-N-[6-(trifluoromethyl)pyridin-3-yl]pyrazin-2-amine] | 10 to 100 | – |
| COc1ccc2nc(C)n(-c3cncc(Nc4ccc(C(F)(F)F)cc4)n3)c2c1 [compound 317, 6-(6-methoxy-2-methyl-1H-benzimidazol-1-yl)-N-[4-(trifluoromethyl)phenyl]pyrazin-2-amine] | 10 to 100 | – |
| COc1ccc2nc(C)c(-c3cc(C#N)cc(Nc4ccc(F)cc4)n3)n2c1 [compound 674, 2-[(4-fluorophenyl)amino]-6-(6-methoxy-2-methylimidazo[1,2-a]pyridin-3-yl)pyridine-4-carbonitrile] | 100 to 3000 | – |
| Cc1cc(Nc2cncc(-n3c(C)nc4ccccc43)n2)ccc1C(F)(F)F [compound 408, 6-(2-methyl-1H-benzimidazol-1-yl)-N-[3-methyl-4-(trifluoromethyl)phenyl]pyrazin-2-amine] | 10 to 100 | – |
| Cc1nc2ccccc2n1-c1cncc(Nc2ccc(Br)cc2)n1 [compound 616, N-(4-bromophenyl)-6-(2-methyl-1H-benzimidazol-1-yl)pyrazin-2-amine] | 1 to 10 | – |

Source: patent US10584115B2, “Substituted pyridine and pyrazine BMI-1 inhibitors” (PTC Therapeutics, Inc., priority 2013, dated 2020)
